Where a name gives a salt, the structure may show the parent alone.
Assay: Phase 1a single ascending dose study: UV-4 in pooled urine, urinary recovery and renal clearance
Assay type: in vivo, human
Conditions: urine; for Cumulative Amount Ae(0-last): corresponds to Ae(0-48); for Cumulative Percent fe(0-last): corresponds to fe(0-48)
Protocol: Serial blood samples were collected at pre-dose (0 hour) and 0.5, 1, 1.5, 2, 2.5, 3, 4, 6, 9, 12, 18, 24, 36, and 48 hours post-dose for assessment of UV-4 concentrations in plasma. Pooled urine samples were collected at pre-dose (-12 to 0 hour) and from 0 to 6, 6 to 12, 12 to 24, and 24 to 48 hours post-dose for assessment of UV-4 concentrations in urine. Plasma and urine concentrations of UV-4 were determined by means of validated, sensitive, and specific high-performance liquid chromatography/tandem mass spectrometric (LC-MS/MS) assays. UV-4 plasma and urine concentrations and PK parameters were listed and summarized by dose, as appropriate. Only the 48 subjects who received active investigational product were included in the PK analysis population.
8.2.3 Specimen Preparation, Handling, and Shipping
8.2.3.1 Instructions for Specimen Preparation, Handling, and Storage
The collected PK blood samples (2 mL) will be placed on ice after blood draw, and within 1 hour centrifuged at room temperature at approximately 3000 revolutions per minute for 15 minutes. Plasma will then be harvested and split into 4 aliquots of approximately 250 μ L and stored frozen at -20°C until shipped.
Urine samples (approximately 10 mL) for determination of UV-4 concentrations in urine will be taken from the total volume provided during each collection period. The total volume of each urine collection will be recorded along with the start/stop time for each urine collection interval.
Analysis of plasma and urine for UV-4 will be performed by the qualified bioanalytical laboratory, Quintiles Bioservices, Inc., Ithaca, New York 14950. Instructions for the proper preparation, handling, storage and shipping of specimens will be provided separately in a study-specific laboratory manual (i.e., Biopacket).
8.2.3.2 Specimen Shipment […]
The following single-dose urine PK parameters will be estimated from the UV-4 urine concentration-time data collected, as appropriate:
Ae Amount of UV-4 excreted in urine unchanged, calculated for each collection interval and cumulatively across intervals fe Fraction of UV-4 excreted in urine unchanged, calculated for each collection interval and cumulatively across intervals […]
Additional UV-4 PK parameters may be calculated at the discretion of the […]
Plasma concentrations and plasma and urine PK parameters will be summarized by treatment using descriptive statistics, as appropriate. Figures for the arithmetic mean (and SD) concentration-time data will be presented for all doses on both a linear and semi-logarithmic scale. Individual concentration-time data will be graphically presented on linear and semi-logarithmic scales. Scatter plots of individual and geometric mean PK parameters versus dose will be presented. Additional graphical presentations of PK data may be added at the discretion of the PK analyst.
Dose proportionality of Cmax, AUC(0-last), and AUC(0-inf) will be assessed graphically and statistically using the power model approach with the logarithm of PK parameters AUC(0-inf) and Cmax as the dependent variables and the logarithm of the dose as the independent variable: ([AUC(0-inf), AUC(0-last), or Cmax]=α *doseβ).
11.4.7 Deviation from Original Analysis Plan
Deviations from the formal statistical analysis plan will be noted in the final Clinical Study

[1] = Cohort 4, 90 mg single oral dose, Median
[2] = Cohort 5, 180 mg single oral dose, Ar Mean
[3] = Cohort 5, 180 mg single oral dose, Median
[4] = Cohort 6, 360 mg single oral dose, Ar Mean
[5] = Cohort 6, 360 mg single oral dose, Median
[6] = Cohort 7, 720 mg single oral dose, Ar Mean
[7] = Cohort 7, 720 mg single oral dose, Median
[8] = Cohort 8, 1000 mg single oral dose, Ar Mean
[9] = Cohort 8, 1000 mg single oral dose, Median

COCCCCCCCCCN1C[C@H](O)[C@@H](O)[C@H](O)[C@H]1CO [UV-4B, N-(9’-methoxynonyl)-1-deoxynojirimycin hydrochloride]
By-Interval Amount Ae(12-24) [1]: 4.01 mg | By-Interval Amount Ae(24-48) [1]: 1.50 mg | By-Interval Percent fe(0-6) [1]: 43.6% | By-Interval Percent fe(6-12) [1]: 7.07% | By-Interval Percent fe(12-24) [1]: 4.46% | By-Interval Percent fe(24-48) [1]: 1.66% | Cumulative Amount Ae(0-12) [1]: 44.2 mg | Cumulative Amount Ae(0-24) [1]: 47.8 mg | Cumulative Percent fe(0-12) [1]: 49.1% | Cumulative Percent fe(0-24) [1]: 53.1% | Cumulative Amount Ae(0-last) [1]: 49.7 mg | Cumulative Percent fe(0-last) [1]: 55.3% | By-Interval Amount Ae(0-6) [2]: 77.5 mg | By-Interval Amount Ae(6-12) [2]: 12.1 mg | By-Interval Amount Ae(12-24) [2]: 6.06 mg | By-Interval Amount Ae(24-48) [2]: 2.43 mg | By-Interval Percent fe(0-6) [2]: 43.0% | By-Interval Percent fe(6-12) [2]: 6.74% | By-Interval Percent fe(12-24) [2]: 3.37% | By-Interval Percent fe(24-48) [2]: 1.35% | Cumulative Amount Ae(0-12) [2]: 89.6 mg | Cumulative Amount Ae(0-24) [2]: 95.7 mg | Cumulative Percent fe(0-12) [2]: 49.8% | Cumulative Percent fe(0-24) [2]: 53.1% | Cumulative Amount Ae(0-last) [2]: 97.9 mg | Cumulative Percent fe(0-last) [2]: 54.5% | By-Interval Amount Ae(0-6) [3]: 77.7 mg | By-Interval Amount Ae(6-12) [3]: 12.1 mg | By-Interval Amount Ae(12-24) [3]: 5.76 mg | By-Interval Amount Ae(24-48) [3]: 2.20 mg | By-Interval Percent fe(0-6) [3]: 43.2% | By-Interval Percent fe(6-12) [3]: 6.72% | By-Interval Percent fe(12-24) [3]: 3.20% | By-Interval Percent fe(24-48) [3]: 1.22% | Cumulative Amount Ae(0-12) [3]: 89.5 mg | Cumulative Amount Ae(0-24) [3]: 96.8 mg | Cumulative Percent fe(0-12) [3]: 49.7% | Cumulative Percent fe(0-24) [3]: 53.8% | Cumulative Amount Ae(0-last) [3]: 99.8 mg | Cumulative Percent fe(0-last) [3]: 55.6% | By-Interval Amount Ae(0-6) [4]: 159 mg | By-Interval Amount Ae(6-12) [4]: 19.1 mg | By-Interval Amount Ae(12-24) [4]: 7.09 mg | By-Interval Amount Ae(24-48) [4]: 2.83 mg | By-Interval Percent fe(0-6) [4]: 44.2% | By-Interval Percent fe(6-12) [4]: 5.32% | By-Interval Percent fe(12-24) [4]: 1.97% | By-Interval Percent fe(24-48) [4]: 0.787% | Cumulative Amount Ae(0-12) [4]: 178 mg | Cumulative Amount Ae(0-24) [4]: 185 mg | Cumulative Percent fe(0-12) [4]: 49.5% | Cumulative Percent fe(0-24) [4]: 51.5% | Cumulative Amount Ae(0-last) [4]: 188 mg | Cumulative Percent fe(0-last) [4]: 52.3% | By-Interval Amount Ae(0-6) [5]: 153 mg | By-Interval Amount Ae(6-12) [5]: 20.0 mg | By-Interval Amount Ae(12-24) [5]: 6.73 mg | By-Interval Amount Ae(24-48) [5]: 2.89 mg | By-Interval Percent fe(0-6) [5]: 42.4% | By-Interval Percent fe(6-12) [5]: 5.55% | By-Interval Percent fe(12-24) [5]: 1.87% | By-Interval Percent fe(24-48) [5]: 0.803% | Cumulative Amount Ae(0-12) [5]: 172 mg | Cumulative Amount Ae(0-24) [5]: 178 mg | Cumulative Percent fe(0-12) [5]: 47.8% | Cumulative Percent fe(0-24) [5]: 49.5% | Cumulative Amount Ae(0-last) [5]: 182 mg | Cumulative Percent fe(0-last) [5]: 50.4% | By-Interval Amount Ae(0-6) [6]: 301 mg | By-Interval Amount Ae(6-12) [6]: 42.5 mg | By-Interval Amount Ae(12-24) [6]: 11.7 mg | By-Interval Amount Ae(24-48) [6]: 4.09 mg | By-Interval Percent fe(0-6) [6]: 41.8% | By-Interval Percent fe(6-12) [6]: 5.90% | By-Interval Percent fe(12-24) [6]: 1.63% | By-Interval Percent fe(24-48) [6]: 0.569% | Cumulative Amount Ae(0-12) [6]: 344 mg | Cumulative Amount Ae(0-24) [6]: 355 mg | Cumulative Percent fe(0-12) [6]: 47.7% | Cumulative Percent fe(0-24) [6]: 49.4% | Cumulative Amount Ae(0-last) [6]: 360 mg | Cumulative Percent fe(0-last) [6]: 49.9% | By-Interval Amount Ae(0-6) [7]: 285 mg | By-Interval Amount Ae(6-12) [7]: 45.7 mg | By-Interval Amount Ae(12-24) [7]: 12.1 mg | By-Interval Amount Ae(24-48) [7]: 4.53 mg | By-Interval Percent fe(0-6) [7]: 39.6% | By-Interval Percent fe(6-12) [7]: 6.34% | By-Interval Percent fe(12-24) [7]: 1.68% | By-Interval Percent fe(24-48) [7]: 0.630% | Cumulative Amount Ae(0-12) [7]: 332 mg | Cumulative Amount Ae(0-24) [7]: 345 mg | Cumulative Percent fe(0-12) [7]: 46.1% | Cumulative Percent fe(0-24) [7]: 47.9% | Cumulative Amount Ae(0-last) [7]: 350 mg | Cumulative Percent fe(0-last) [7]: 48.5% | By-Interval Amount Ae(0-6) [8]: 428 mg | By-Interval Amount Ae(6-12) [8]: 53.7 mg | By-Interval Amount Ae(12-24) [8]: 16.4 mg | By-Interval Amount Ae(24-48) [8]: 5.21 mg | By-Interval Percent fe(12-24) [8]: 1.64% | Cumulative Amount Ae(0-12) [8]: 482 mg | Cumulative Amount Ae(0-24) [8]: 498 mg | Cumulative Amount Ae(0-last) [8]: 504 mg | By-Interval Amount Ae(0-6) [9]: 421 mg | By-Interval Amount Ae(6-12) [9]: 56.1 mg | By-Interval Amount Ae(12-24) [9]: 16.6 mg | By-Interval Amount Ae(24-48) [9]: 5.03 mg | Cumulative Amount Ae(0-12) [9]: 475 mg | Cumulative Amount Ae(0-24) [9]: 496 mg | Cumulative Amount Ae(0-last) [9]: 501 mg

— PMC9387934, “Randomized single oral dose phase 1 study of safety, tolerability, and pharmacokinetics of Iminosugar UV-4 Hydrochloride (UV-4B) in healthy subjects” (PLoS Neglected Tropical Diseases, 2022)
